Source: ChEMBL document CHEMBL4411296, “Design and development of Isatin-triazole hydrazones as potential inhibitors of microtubule affinity-regulating kinase 4 for the therapeutic management of cell proliferation and metastasis” (Eur J Med Chem, 2019)

Experiments:
Type in all cases: functional
[1] = test system: M14; assay: Growth inhibition of human M14 cells assessed as cell growth at 10 uM after 48 hrs by sulforhodamine B assay relative to control; conditions: M14, 48 h, read-out: Activity
[2] = test system: RPMI-8226; assay: Growth inhibition of human RPMI8226 cells assessed as cell growth at 10 uM after 48 hrs by sulforhodamine B assay relative to control; conditions: RPMI-8226, 48 h, read-out: Activity
[3] = test system: MDA-MB-468; assay: Growth inhibition of human MDA-MB-468 cells assessed as cell growth at 10 uM after 48 hrs by sulforhodamine B assay relative to control; conditions: MDA-MB-468, 48 h, read-out: Activity
[4] = test system: EKVX; assay: Growth inhibition of human EKVX cells assessed as cell growth at 10 uM after 48 hrs by sulforhodamine B assay relative to control; conditions: read-out: Activity
[5] = test system: SNB-75; assay: Growth inhibition of human SNB75 cells assessed as cell growth at 10 uM after 48 hrs by sulforhodamine B assay relative to control; conditions: SNB-75, 48 h, read-out: Activity
[6] = test system: OVCAR-3; assay: Growth inhibition of human OVCAR3 cells assessed as cell growth at 10 uM after 48 hrs by sulforhodamine B assay relative to control; conditions: OVCAR-3, 48 h, read-out: Activity
[7] = test system: NCI-H322M; assay: Growth inhibition of human NCI-H322M cells assessed as cell growth at 10 uM after 48 hrs by sulforhodamine B assay relative to control; conditions: read-out: Activity
[8] = test system: CCRF-CEM; assay: Growth inhibition of human CCRF-CEM cells assessed as cell growth at 10 uM after 48 hrs by sulforhodamine B assay relative to control; conditions: read-out: Activity
[9] = test system: IGROV-1; assay: Growth inhibition of human IGROV1 cells assessed as cell growth at 10 uM after 48 hrs by sulforhodamine B assay relative to control; conditions: IGROV-1, 48 h, read-out: Activity
[10] = test system: OVCAR-8; assay: Growth inhibition of human OVCAR8 cells assessed as cell growth at 10 uM after 48 hrs by sulforhodamine B assay relative to control; conditions: OVCAR-8, 48 h, read-out: Activity
[11] = test system: HCT-116; assay: Growth inhibition of human HCT116 cells assessed as cell growth at 10 uM after 48 hrs by sulforhodamine B assay relative to control; conditions: HCT-116, 48 h, read-out: Activity
[12] = test system: HOP-62; assay: Growth inhibition of human HOP62 cells assessed as cell growth at 10 uM after 48 hrs by sulforhodamine B assay relative to control; conditions: HOP-62, 48 h, read-out: Activity
[13] = test system: RXF 393; assay: Growth inhibition of human RXF393 cells assessed as cell growth at 10 uM after 48 hrs by sulforhodamine B assay relative to control; conditions: RXF 393, 48 h, read-out: Activity
[14] = test system: MCF7; assay: Growth inhibition of human MCF7 cells assessed as cell growth at 10 uM after 48 hrs by sulforhodamine B assay relative to control; conditions: MCF7, 48 h, read-out: Activity
[15] = test system: SF-268; assay: Growth inhibition of human SF268 cells assessed as cell growth at 10 uM after 48 hrs by sulforhodamine B assay relative to control; conditions: SF-268, 48 h, read-out: Activity
[16] = test system: UACC-257; assay: Growth inhibition of human UACC257 cells assessed as cell growth at 10 uM after 48 hrs by sulforhodamine B assay relative to control; conditions: UACC-257, 48 h, read-out: Activity
[17] = test system: SK-MEL-28; assay: Growth inhibition of human SK-MEL-28 cells assessed as cell growth at 10 uM after 48 hrs by sulforhodamine B assay relative to control; conditions: SK-MEL-28, 48 h, read-out: Activity
[18] = test system: NCI-H460; assay: Growth inhibition of human NCI-H460 cells assessed as cell growth at 10 uM after 48 hrs by sulforhodamine B assay relative to control; conditions: NCI-H460, 48 h, read-out: Activity
[19] = test system: UACC-62; assay: Growth inhibition of human UACC62 cells assessed as cell growth at 10 uM after 48 hrs by sulforhodamine B assay relative to control; conditions: UACC-62, 48 h, read-out: Activity
[20] = test system: A498; assay: Growth inhibition of human A498 cells assessed as cell growth at 10 uM after 48 hrs by sulforhodamine B assay relative to control; conditions: A498, 48 h, read-out: Activity
[21] = test system: MDA-MB-435; assay: Growth inhibition of human MDA-MB-435 cells assessed as cell growth at 10 uM after 48 hrs by sulforhodamine B assay relative to control; conditions: MDA-MB-435, 48 h, read-out: Activity
[22] = test system: 786-0; assay: Growth inhibition of human 786-0 cells assessed as cell growth at 10 uM after 48 hrs by sulforhodamine B assay relative to control; conditions: 786-0, 48 h, read-out: Activity
[23] = test system: HCT-15; assay: Growth inhibition of human HCT15 cells assessed as cell growth at 10 uM after 48 hrs by sulforhodamine B assay relative to control; conditions: HCT-15, 48 h, read-out: Activity
[24] = test system: HL-60(TB); assay: Growth inhibition of human HL-60(TB) cells assessed as cell growth at 10 uM after 48 hrs by sulforhodamine B assay relative to control; conditions: HL-60, 48 h, read-out: Activity
[25] = test system: SK-MEL-5; assay: Growth inhibition of human SK-MEL-5 cells assessed as cell growth at 10 uM after 48 hrs by sulforhodamine B assay relative to control; conditions: SK-MEL-5, 48 h, read-out: Activity
[26] = test system: DU-145; assay: Growth inhibition of human DU145 cells assessed as cell growth at 10 uM after 48 hrs by sulforhodamine B assay relative to control; conditions: DU-145, 48 h, read-out: Activity
[27] = test system: SN12C; assay: Growth inhibition of human SN12C cells assessed as cell growth at 10 uM after 48 hrs by sulforhodamine B assay relative to control; conditions: read-out: Activity
[28] = test system: MOLT-4; assay: Growth inhibition of human MOLT4 cells assessed as cell growth at 10 uM after 48 hrs by sulforhodamine B assay relative to control; conditions: MOLT-4, 48 h, read-out: Activity
[29] = test system: TK-10; assay: Growth inhibition of human TK10 cells assessed as cell growth at 10 uM after 48 hrs by sulforhodamine B assay relative to control; conditions: TK-10, 48 h, read-out: Activity
[30] = test system: NCI-H226; assay: Growth inhibition of human NCI-H226 cells assessed as cell growth at 10 uM after 48 hrs by sulforhodamine B assay relative to control; conditions: NCI-H226, 48 h, read-out: Activity
[31] = test system: A549; assay: Growth inhibition of human A549/ATCC cells assessed as cell growth at 10 uM after 48 hrs by sulforhodamine B assay relative to control; conditions: A549, 48 h, read-out: Activity
[32] = test system: CAKI-1; assay: Growth inhibition of human Caki1 cells assessed as cell growth at 10 uM after 48 hrs by sulforhodamine B assay relative to control; conditions: CAKI-1, 48 h, read-out: Activity
[33] = test system: OVCAR-5; assay: Growth inhibition of human OVCAR5 cells assessed as cell growth at 10 uM after 48 hrs by sulforhodamine B assay relative to control; conditions: OVCAR-5, 48 h, read-out: Activity

Row | SMILES | growth at 10 µM [1] [%] | growth at 10 µM [2] [%] | growth at 10 µM [3] [%] | growth at 10 µM [4] [%] | growth at 10 µM [5] [%] | growth at 10 µM [6] [%] | growth at 10 µM [7] [%] | growth at 10 µM [8] [%] | growth at 10 µM [9] [%] | growth at 10 µM [10] [%] | growth at 10 µM [11] [%] | growth at 10 µM [12] [%] | growth at 10 µM [13] [%] | growth at 10 µM [14] [%] | growth at 10 µM [15] [%] | growth at 10 µM [16] [%] | growth at 10 µM [17] [%] | growth at 10 µM [18] [%] | growth at 10 µM [19] [%] | growth at 10 µM [20] [%] | further results
1 | COc1ccc(Cn2cc(C(=O)N/N=C3/C(=O)Nc4ccc(C)cc43)nn2)cc1 | 109 | 105 | 99.2 | 108 | 110 | 108 | 102 | 98.1 | 109 | 104 | 122 | 112 | 117 | 89.2 | 94.1 | 101 | 111 | 105 | 94.6 | 91.6 | growth at 10 µM [21]: 101%; growth at 10 µM [22]: 96.3%; growth at 10 µM [23]: 111%; growth at 10 µM [24]: 84.8%; growth at 10 µM [25]: 91.7%; growth at 10 µM [26]: 96%; growth at 10 µM [27]: 98.4%; growth at 10 µM [28]: 87.8%; growth at 10 µM [29]: 94.6%; growth at 10 µM [30]: 93%; growth at 10 µM [31]: 97.9%; growth at 10 µM [32]: 95.4%; growth at 10 µM [33]: 105%
2 | COc1ccc(Cn2cc(C(=O)N/N=C3/C(=O)Nc4ccccc43)nn2)cc1 | 103 | 105 | 99 | 104 | 95.3 | 112 | 97.9 | 104 | 97.5 | 97.8 | 109 | 104 | 101 | 96.5 | 101 | 102 | 104 | 109 | 96.7 | 96 | growth at 10 µM [21]: 100%; growth at 10 µM [22]: 106%; growth at 10 µM [23]: 105%; growth at 10 µM [24]: 93.3%; growth at 10 µM [25]: 102%; growth at 10 µM [26]: 104%; growth at 10 µM [27]: 96.3%; growth at 10 µM [28]: 93.2%; growth at 10 µM [29]: 107%; growth at 10 µM [30]: 86.8%; growth at 10 µM [31]: 98.4%; growth at 10 µM [32]: 93.3%; growth at 10 µM [33]: 93%
